In ChEMBL document CHEMBL3988442, “University of Dundee, Small-Polar-MMV Screening Library” (2021):

Tests used:
[1] = microbe, parasite or virus in culture; details: Mycobacterium tuberculosis, 96 h, read-out: pIC50 (converted)
[2] = microbe, parasite or virus in culture; details: Mycobacterium tuberculosis, 72 h, read-out: pIC50 (converted)

Structure (SMILES)	IC50 [1] [µM]	IC50 [2] [µM]
NC(=O)c1ccc(-n2ccnc2-c2cccc(O)c2)cc1N1CCCC1	> 50.1	> 50.1
CCc1ccccc1OC1CN(C(=O)c2ccnc(OC)c2)C1	43.4	21.3
CC(C)[C@@H]1CN(C(=O)NCc2ccco2)C[C@H]1N(C)C	> 50.1	> 50.1
O=C1N(Cc2ccc(F)c(F)c2)CCCC12CCN(C1CCCCC1)C2 (stereo not drawn)	26.3	15.1
Nc1cc(N2CCCC(CO)(Cc3ccccc3F)C2)nc(N)n1 (stereo not drawn)	45.3	47.1
FC(F)(F)c1ccnc(N2CCC(c3nccn3CC3CC3)CC2)n1	16.3	44.6
CCc1nc(NC2CCCN(C(=O)c3cccs3)C2)c2cnn(C)c2n1 (stereo not drawn)	> 50.1	> 50.1
CCC(O)CNc1ccc(-c2nc(CC(C)C)no2)cn1 (stereo not drawn)	26.7	44.9
O=C(c1coc(COc2cccc3cnccc23)n1)N1CCSCC1	> 50.1	> 50.1
COc1ncc(CN2CCOC(Cc3cccc4ccccc34)C2)cn1 (stereo not drawn)	> 50.1	> 50.1
CSc1nccc(N2CCC3(CCCN(Cc4ccc(F)cc4)C3)C2)n1 (stereo not drawn)	25.2	27.2
COCCNS(=O)(=O)c1cccc2c1CN(C(=O)c1ccoc1)CC2	> 50.1	> 50.1
O=C(NCc1n[nH]c2c1CCCCC2)c1cnn2c1CCCC2	> 50.1	> 50.1
COc1ccccc1OCCn1c(C)c(C)oc1=O	> 50.1	> 50.1
CNc1nc(C)cc(NCc2cc(C)cc3c(C)c(C)[nH]c23)n1	44.8	28
O=C(c1ccc(Cn2cnnn2)cc1)N1CCC(c2ccncc2)CC1	> 50.1	> 50.1
CCNc1ncc(C(=O)N2CCOC(CCCC(C)C)C2)cn1 (stereo not drawn)	43	> 50.1
Cn1c(-c2ccccc2Cl)nc2cc(C(=O)NC(CO)CO)cnc21	> 50.1	> 50.1
Cc1cccc(CN2C[C@@H](CN3CCCN(C)CC3)C[C@H](CO)C2)n1	> 50.1	> 50.1
Cc1cc(N2CCN(C(=O)Cc3ccc4c(c3)OCO4)CC2)cc(C)n1	> 50.1	> 50.1
Cn1nc(CN2CCCN(C3CCCC3)CC2)c2c(Cl)cccc21	39.8	44.8
CC(C)c1ccc(CN2C(=O)C3(CCNCC3)Nc3ccccc32)cc1	22.3	32
CN(Cc1ccccc1)CC1(O)CCCN(CCC2CCCCC2)C1=O (stereo not drawn)	> 50.1	> 50.1
Cc1ccc(N2CCN(c3ccccc3C)CC2C)nn1 (stereo not drawn)	> 50.1	> 50.1

Structure (SMILES)	IC50 [1] [µM]	IC50 [2] [µM]
Cc1n[nH]c(C)c1CN(C)C(C(=O)O)c1c(F)cccc1OC(C)C (stereo not drawn)	> 50.1	> 50.1
Cc1nc[nH]c1CN1CCCC12CCN(c1nc3ccccc3s1)CC2	> 50.1	46
Cc1ccc(-n2cc(CN3CCOCC3)c(-c3cccc(C)c3)n2)cc1	> 50.1	24.8
O=C(NCc1ccc(CO)cc1)C1CCOc2ccccc2C1 (stereo not drawn)	12.2	> 50.1
CN1CCC(N(C)CCC(=O)N2CCC(CCc3ccccc3)CC2)C1 (stereo not drawn)	35.3	41.5
c1ccc(-c2cc(CN3C[C@@H]4CC[C@H](C3)N(CC3CC3)C4)on2)cc1	24.8	24.3
c1csc(CCNc2nc(-c3ccncc3)nc3c2CCNCC3)c1	21.7	46.2
Cc1cc2nc(C(C)C)cc(N(C)CC3CCCN3C)n2n1 (stereo not drawn)	> 50.1	9.21
COC[C@H]1CCCN1c1nccc(-c2cnn(-c3ccccc3C)c2)n1	43.3	17.8
CCN(C)Cc1nc(-c2ccccc2NS(C)(=O)=O)oc1C	> 50.1	> 50.1
CN(CCc1ccccc1)Cc1nc(Cc2cccc(F)c2)no1	33.8	2.69
COc1ccnc(CN2CCCC(CCc3ccc(F)cc3)C2)c1OC (stereo not drawn)	20.9	34.7
Cc1cnc(N2CCCC(c3ccccc3)C2)nc1-c1ncnn1C (stereo not drawn)	> 50.1	> 50.1
Cc1cc(CN(C)CC2(O)CCCN(CCC3CCCCC3)C2=O)no1 (stereo not drawn)	> 50.1	> 50.1
CCc1ccccc1OC1CN(C(=O)c2cccs2)C1	14.2	5.46
Cc1cc(NCCCC(F)(F)F)n2nc(C)cc2n1	10.2	15.6
CCC(C)Oc1ccc(CNCCNS(C)(=O)=O)cc1Cl (stereo not drawn)	> 50.1	> 50.1
Cc1n[nH]c(C)c1CCNC(=O)C1CCCN(Cc2ccco2)C1 (stereo not drawn)	> 50.1	> 50.1
Cc1ccc2nc(-c3cnc(N)nc3)c(C)c(C(=O)N(C)C)c2c1	> 50.1	> 50.1
CC(C)CCN1CCNC(=O)C1CC(=O)NCCc1cc(O)ncn1 (stereo not drawn)	> 50.1	> 50.1
O=C(c1cn(-c2ccccc2)nn1)N1CCOCC(O)C1 (stereo not drawn)	> 50.1	> 50.1
CN(Cc1nc(CC2CC2)no1)CC1Cc2ccccc2O1 (stereo not drawn)	22.8	38
N#Cc1cccc(S(=O)(=O)N2CCCCC2CCN2CCCC2)c1 (stereo not drawn)	8.72	14.3
CSc1ncc(C(=O)N2CCN(c3ccccc3C)CC2C)cn1 (stereo not drawn)	18.3	16.4

Structure (SMILES)	IC50 [1] [µM]	IC50 [2] [µM]
O=C(c1cc(COc2ccc3c(c2)OCO3)[nH]n1)N1CCSCC1	33.5	31.8
Cc1ncsc1CCC(=O)N1CCCC1c1cccnc1 (stereo not drawn)	> 50.1	> 50.1
Fc1ccc(N2CCCN(c3ccc(Cn4ccnc4)cn3)CC2)cc1	43.5	29.6
COc1cccc(CN2CCC(CO)(Cc3ccc(Cl)cc3)CC2)c1O	26.1	29.4
Cc1ccoc1C(=O)N1CCC(n2cc(-c3ccsc3)nn2)CC1	> 50.1	> 50.1
Cc1ccc(CN(Cc2ccncc2)C2CCN(C)CC2)s1	> 50.1	> 50.1
Cc1ccc(NC2CCCN(Cc3ccc(Cl)cc3)C2)nn1 (stereo not drawn)	6.67	7.35
COc1cc(Oc2ccc(C(F)(F)F)cn2)ccc1CN1CCCC1	16.6	13.9
CN(C)CCN(C)c1ccc(-c2nc(COc3ccccc3)no2)cn1	14.4	48.4
COc1cccc(-c2noc(-c3ccc(NCCCO)nc3)n2)c1OC	21.2	> 50.1
COCC(=O)N1CCCN(Cc2cc(C(C)C)no2)CC1	> 50.1	> 50.1
CCc1ccc(CN2CCOC(Cc3cccc(F)c3)C2)nc1 (stereo not drawn)	12.3	36.3
O=C(NC1CCCN(CCCc2ccccc2)C1)c1ccc(Cl)s1 (stereo not drawn)	24.4	33.6
CCCc1nc(C)cc(N2CCC3(CCC(=O)N(CCO)C3)CC2)n1	> 50.1	> 50.1
COc1ccc(C(=O)N2CCOC(Cc3cccc(C(F)(F)F)c3)C2)o1 (stereo not drawn)	10.7	35.1
CNc1cc(C)nc(NCc2cc(C)cc3c(C)c(C)[nH]c23)n1	35.8	23.6
Cc1cc(NCC2CCS(=O)(=O)C2)n2nc(C)cc2n1 (stereo not drawn)	> 50.1	> 50.1
COc1cccc(-c2ncc(CN3CC[C@H]4CC[C@@H](C3)N4)s2)c1	24.5	41.2
COc1cc(Cl)cc(CN2CCCC(N3CCCC3)C2)c1OC (stereo not drawn)	28.3	23.3
Cc1nn(C2CCCC2)c2nc(C(C)(C)CN3CCN(C)CC3)[nH]c12	> 50.1	> 50.1
O=C1Nc2ccccc2NC12CCN(c1cccc(C(F)(F)F)n1)CC2	> 50.1	> 50.1
CCSc1ncc(CN2CCN(c3nc(C)cnc3C)CC2)cn1	28.7	> 50.1
CCc1cn[nH]c1C1CCN(c2cc(C)c3cccc(OC)c3n2)CC1	> 50.1	22.2
FC(F)Oc1ccccc1CN1CCCC(c2nccn2CC2CC2)C1 (stereo not drawn)	> 50.1	> 50.1

Structure (SMILES)	IC50 [1] [µM]	IC50 [2] [µM]
Cc1ccc(C(=O)N2CC(Oc3ccccc3C)C2)s1	10.7	8.82
CN1CCC(N(C)CCC(=O)N2CCC(Cc3ccc(F)cc3)CC2)C1 (stereo not drawn)	> 50.1	22
CN(C)c1ncnc2c1CCN(C(=O)CN1CCCCC1)C2	> 50.1	> 50.1
CSCCNC(=O)c1coc(COc2ccc3sc(C)nc3c2)n1	> 50.1	> 50.1
Cn1ncc2c(N3CCCN4CCC[C@H]4C3)nc(C(C)(C)C)nc21	47	> 50.1
Cc1cc(C(=O)NCc2csc(N(C)C)n2)c2ccc(C)c(C)c2n1	13.6	19
Cc1nc(CN2CCCC(CCc3ccccc3C(F)(F)F)C2)no1 (stereo not drawn)	26.2	28.7
Cc1ccc(C(=O)N2CCCC(Nc3ccc(F)cc3)C2)cc1 (stereo not drawn)	20.9	18.7
OC1(CNCCN2CCc3ccccc32)CNCCOC1 (stereo not drawn)	> 50.1	> 50.1
COc1ccc(-c2ccccc2CCN)c(OC)c1	41.6	48.2
Cc1cc(NC2CCC(=O)N(C)C2)n2nccc2n1 (stereo not drawn)	> 50.1	> 50.1
CCC[C@@H]1CN(Cc2ccc3c(c2)OCCO3)C[C@H]1C(=O)O	> 50.1	> 50.1
CCS(=O)(=O)N1CCC(c2nnc(CN3CCCCCC3)n2C)CC1	> 50.1	> 50.1
COc1ccccc1-c1ncc(CN2C[C@@H](N(C)C)[C@H](C(C)C)C2)s1	25.4	31.4
COc1coc(CN2CCCC(CCc3ccccc3C)C2)cc1=O (stereo not drawn)	16.2	16.1
CCCN1CCC(Nc2cc(-c3ccccc3)ccc2OC)CC1	32.9	23.4
Cc1[nH]c(=O)[nH]c(=O)c1CN1CCCC(CCc2ccc(F)cc2F)C1 (stereo not drawn)	> 50.1	> 50.1
Cc1nc2c(c(NCc3nc4ccccc4s3)n1)CCNCC2	45.8	23.7
N#Cc1cccc(N2CCCC(CO)(Cc3ccccc3F)C2)n1 (stereo not drawn)	> 50.1	12.6
Cc1ccc2[nH]c(=O)cc(C(=O)NCCCn3nccc3C3CC3)c2c1	> 50.1	26.1
CCc1ccccc1OCCN(C)C(=O)CN1CCCC1	> 50.1	39.2
COCCc1noc(CNC2CCCC(C)(C)C2)n1 (stereo not drawn)	> 50.1	2.66
